Test results taken from PubChem BioAssay AID1918944 (Molecular Pharmacology Branch, DTP, NCI, 2023).
Activity calls are given as the source filed them. Rule for the calls: active = viability on the fitted dose curve at most 10% of control; inactive = the rest.

Test system: 786-0 complex spheroid viability
Test: Anticancer human tumor 786-0 cell line growth inhibition;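 note: spheroids exposed to agents for seven days before readout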
Conditions: for IC50: curve of first compound; for viability, T/C: stronger effect = lower value; for outcome: first compound 0.00949 µM
Procedure, shortened: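 Drug combinations with the LSD1 inhibitor iadademstat tested on tumor cells co-cultured as spheroids with endothelial cells and mesenchymal stem cells. Concentrations descended in half-log increments from clinical Cmax or 10 microM.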

[1] = second compound 0.1 µM, first compound 0.0316 µM
[2] = second compound 0.1 µM, first compound 0.1 µM
[3] = second compound 0.1 µM, first compound 0.316 µM
[4] = second compound 0.1 µM, first compound 1 µM
[5] = second compound 0.1 µM, first compound 3.16 µM
[6] = second compound 0.1 µM, first compound 10 µM
[7] = second compound 0.316 µM, first compound 0.0316 µM
[8] = second compound 0.316 µM, first compound 0.1 µM
[9] = second compound 0.316 µM, first compound 0.316 µM
[10] = second compound 0.316 µM, first compound 1 µM
[11] = second compound 0.316 µM, first compound 3.16 µM
[12] = second compound 0.316 µM, first compound 10 µM
[13] = second compound 1 µM, first compound 0.0316 µM
[14] = second compound 1 µM, first compound 0.1 µM
[15] = second compound 1 µM, first compound 0.316 µM
[16] = second compound 1 µM, first compound 1 µM
[17] = second compound 1 µM, first compound 3.16 µM
[18] = second compound 1 µM, first compound 10 µM
[19] = second compound 3.16 µM, first compound 0.0316 µM
[20] = second compound 3.16 µM, first compound 0.1 µM
[21] = second compound 3.16 µM, first compound 0.316 µM
[22] = second compound 3.16 µM, first compound 1 µM
[23] = second compound 3.16 µM, first compound 3.16 µM
[24] = second compound 3.16 µM, first compound 10 µM
[25] = second compound 10 µM, first compound 0.0316 µM
[26] = second compound 10 µM, first compound 0.1 µM
[27] = second compound 10 µM, first compound 0.316 µM
[28] = second compound 10 µM, first compound 1 µM
[29] = second compound 10 µM, first compound 3.16 µM
[30] = second compound 10 µM, first compound 10 µM

For `CC1(C)CCC(CN2CCN(c3ccc(C(=O)NS(=O)(=O)c4ccc(NCC5CCOCC5)c([N+](=O)[O-])c4)c(Oc4cnc5[nH]ccc5c4)c3)CC2)=C(c2ccc(Cl)cc2)C1` + NC1CCC(NC2CC2c2ccccc2)CC1, the IC50 (second compound 0.1 µM) was over 10000 nM, the IC50 (second compound 0.316 µM) was over 10000 nM and the IC50 (second compound 1 µM) was over 10000 nM. It also gave an IC50 (second compound 3.16 µM) of 9290 nM, an IC50 (second compound 10 µM) of 6260 nM and a viability, T/C [1] of 113%. It also gave a viability, T/C [2] of 117%, a viability, T/C [3] of 110% and a viability, T/C [4] of 116%. The viability, T/C [5] was 103%, the viability, T/C [6] was 68.1% and the viability, T/C [7] was 117%. For the same compound, the viability, T/C [8] was 121%, the viability, T/C [9] was 120% and the viability, T/C [10] was 120%. For the same compound, the viability, T/C [11] was 106%, the viability, T/C [12] was 67.1% and the viability, T/C [13] was 116%. It also gave a viability, T/C [14] of 116%, a viability, T/C [15] of 118% and a viability, T/C [16] of 108%. For the same compound, the viability, T/C [17] was 104%, the viability, T/C [18] was 58.3% and the viability, T/C [19] was 110%. The viability, T/C [20] was 109%, the viability, T/C [21] was 107% and the viability, T/C [22] was 96%. For the same compound, the viability, T/C [23] was 85.3%, the viability, T/C [24] was 47.4% and the viability, T/C [25] was 90.2%. The viability, T/C [26] was 94.6%, the viability, T/C [27] was 89.3% and the viability, T/C [28] was 74.1%. It also gave a viability, T/C [29] of 63.2% and a viability, T/C [30] of 41.8%.

In the case of `Nc1ccn(C2OC(CO)C(O)C2(F)F)c(=O)n1` (stereo not given) + NC1CC1c1ccc(-c2cccc(O)c2)cc1, the IC50 (second compound 0.1 µM) is reported as under 0.949 nM, the IC50 (second compound 0.316 µM) is reported as under 0.949 nM and the IC50 (second compound 1 µM) is reported as under 0.949 nM. For the same compound, the IC50 (second compound 3.16 µM) was under 0.949 nM, the IC50 (second compound 10 µM) was under 0.949 nM and the viability, T/C (second compound 0.1 µM, first compound 0.000949 µM) was 10.3%. For the same compound, the viability, T/C (second compound 0.1 µM, first compound 0.003 µM) was 2.49%, the outcome (second compound 0.1 µM) was “active” and the viability, T/C (second compound 0.1 µM, first compound 0.03 µM) was 2.95%. It also gave a viability, T/C (second compound 0.1 µM, first compound 0.0949 µM) of 3.87%, a viability, T/C (second compound 0.1 µM, first compound 0.3 µM) of 4.12% and a viability, T/C (second compound 0.316 µM, first compound 0.000949 µM) of 9.54%. The viability, T/C (second compound 0.316 µM, first compound 0.003 µM) was 2.66%, the outcome (second compound 0.316 µM) was “active” and the viability, T/C (second compound 0.316 µM, first compound 0.03 µM) was 2.74%. The viability, T/C (second compound 0.316 µM, first compound 0.0949 µM) was 4.19%, the viability, T/C (second compound 0.316 µM, first compound 0.3 µM) was 3.51% and the viability, T/C (second compound 1 µM, first compound 0.000949 µM) was 7.42%. The viability, T/C (second compound 1 µM, first compound 0.003 µM) was 2.53%, the outcome (second compound 1 µM) was “active” and the viability, T/C (second compound 1 µM, first compound 0.03 µM) was 2.64%. The viability, T/C (second compound 1 µM, first compound 0.0949 µM) was 3.23%, the viability, T/C (second compound 1 µM, first compound 0.3 µM) was 4% and the viability, T/C (second compound 3.16 µM, first compound 0.000949 µM) was 9.36%. The viability, T/C (second compound 3.16 µM, first compound 0.003 µM) was 2.32%, the outcome (second compound 3.16 µM) was “active” and the viability, T/C (second compound 3.16 µM, first compound 0.03 µM) was 2.75%. It also gave a viability, T/C (second compound 3.16 µM, first compound 0.0949 µM) of 3.87%, a viability, T/C (second compound 3.16 µM, first compound 0.3 µM) of 6.57% and a viability, T/C (second compound 10 µM, first compound 0.000949 µM) of 7.48%. The viability, T/C (second compound 10 µM, first compound 0.003 µM) was 3.61%, the outcome (second compound 10 µM) was “active” and the viability, T/C (second compound 10 µM, first compound 0.03 µM) was 2.69%. It also gave a viability, T/C (second compound 10 µM, first compound 0.0949 µM) of 3.6% and a viability, T/C (second compound 10 µM, first compound 0.3 µM) of 4.45%.

In the case of `CC(C)c1c(-c2ccccc2)nc2c(C#N)c[nH]n2c1=O` + NC1CCC(NC2CC2c2ccccc2)CC1, the IC50 (second compound 0.1 µM) is reported as over 10000 nM, the IC50 (second compound 0.316 µM) is reported as over 10000 nM and the IC50 (second compound 1 µM) is reported as over 10000 nM. The IC50 (second compound 3.16 µM) was over 10000 nM, the IC50 (second compound 10 µM) was over 10000 nM and the viability, T/C [1] was 110%. It also gave a viability, T/C [2] of 111%, a viability, T/C [3] of 119% and a viability, T/C [4] of 118%. It also gave a viability, T/C [5] of 116%, a viability, T/C [6] of 112% and a viability, T/C [7] of 121%. For the same compound, the viability, T/C [8] was 118%, the viability, T/C [9] was 118% and the viability, T/C [10] was 116%. For the same compound, the viability, T/C [11] was 115%, the viability, T/C [12] was 116% and the viability, T/C [13] was 114%. It also gave a viability, T/C [14] of 113%, a viability, T/C [15] of 113% and a viability, T/C [16] of 125%. The viability, T/C [17] was 112%, the viability, T/C [18] was 113% and the viability, T/C [19] was 111%. It also gave a viability, T/C [20] of 107%, a viability, T/C [21] of 108% and a viability, T/C [22] of 100%. The viability, T/C [23] was 107%, the viability, T/C [24] was 103% and the viability, T/C [25] was 92.7%. It also gave a viability, T/C [26] of 95.3%, a viability, T/C [27] of 95.2% and a viability, T/C [28] of 98.8%. The viability, T/C [29] was 88.1% and the viability, T/C [30] was 84.9%.

In the case of `CC1COCCN1c1cc(C2(S(C)(=N)=O)CC2)nc(-c2ccnc3[nH]ccc23)n1` (stereo not given) + NC1CCC(NC2CC2c2ccccc2)CC1, the IC50 (second compound 0.1 µM) is reported as 886 nM, the IC50 (second compound 0.316 µM) is reported as 792 nM and the IC50 (second compound 1 µM) is reported as 795 nM. For the same compound, the IC50 (second compound 3.16 µM) was 604 nM, the IC50 (second compound 10 µM) was 294 nM and the viability, T/C [1] was 118%. The viability, T/C [2] was 114%, the viability, T/C [3] was 104% and the viability, T/C [4] was 43%. It also gave a viability, T/C [5] of 15.3%, a viability, T/C [6] of 6.76% and a viability, T/C [7] of 125%. For the same compound, the viability, T/C [8] was 116%, the viability, T/C [9] was 93.4% and the viability, T/C [10] was 38.1%. It also gave a viability, T/C [11] of 14.7%, a viability, T/C [12] of 6.62% and a viability, T/C [13] of 112%. The viability, T/C [14] was 116%, the viability, T/C [15] was 89.2% and the viability, T/C [16] was 40%. It also gave a viability, T/C [17] of 13%, a viability, T/C [18] of 4.93% and a viability, T/C [19] of 109%. It also gave a viability, T/C [20] of 103%, a viability, T/C [21] of 72.8% and a viability, T/C [22] of 32.3%. The viability, T/C [23] was 9.43%, the viability, T/C [24] was 5.16% and the viability, T/C [25] was 94.1%. The viability, T/C [26] was 77.5%, the viability, T/C [27] was 48.3% and the viability, T/C [28] was 20.8%. The viability, T/C [29] was 5.55% and the viability, T/C [30] was 2.91%.
